Data: patent US9580390B2, “Indazole compounds as kinase inhibitors and method of treating cancer with same” (University Health Network, priority 2011, dated 2017)
Like-named read-outs stand apart in the source and are kept apart here.

Assays:
[1] = tested on: colon cancer cells (HCT116); assay: Cancer cell line growth inhibition (SRB assay); format: cell-based; settings: Homo sapiens, HCT-116, read-out: Cancer Cell Line GI50 Range HCT116
[2] = tested on: ovarian cancer cells (PA-1); assay: Cancer cell line growth inhibition (SRB assay); format: cell-based; settings: read-out: Cancer Cell Line GI50 Range PA-1
[3] = target: T1, human TTK (Homo sapiens, UniProt P33981); assay: TTK inhibition assay (indirect ELISA); format: biochemical; settings: read-out: TTK IC50 Range
T1 construct: amino terminal GST fusion of full length human TTK; purchased Invitrogen
T1 sequence (P33981 1-857): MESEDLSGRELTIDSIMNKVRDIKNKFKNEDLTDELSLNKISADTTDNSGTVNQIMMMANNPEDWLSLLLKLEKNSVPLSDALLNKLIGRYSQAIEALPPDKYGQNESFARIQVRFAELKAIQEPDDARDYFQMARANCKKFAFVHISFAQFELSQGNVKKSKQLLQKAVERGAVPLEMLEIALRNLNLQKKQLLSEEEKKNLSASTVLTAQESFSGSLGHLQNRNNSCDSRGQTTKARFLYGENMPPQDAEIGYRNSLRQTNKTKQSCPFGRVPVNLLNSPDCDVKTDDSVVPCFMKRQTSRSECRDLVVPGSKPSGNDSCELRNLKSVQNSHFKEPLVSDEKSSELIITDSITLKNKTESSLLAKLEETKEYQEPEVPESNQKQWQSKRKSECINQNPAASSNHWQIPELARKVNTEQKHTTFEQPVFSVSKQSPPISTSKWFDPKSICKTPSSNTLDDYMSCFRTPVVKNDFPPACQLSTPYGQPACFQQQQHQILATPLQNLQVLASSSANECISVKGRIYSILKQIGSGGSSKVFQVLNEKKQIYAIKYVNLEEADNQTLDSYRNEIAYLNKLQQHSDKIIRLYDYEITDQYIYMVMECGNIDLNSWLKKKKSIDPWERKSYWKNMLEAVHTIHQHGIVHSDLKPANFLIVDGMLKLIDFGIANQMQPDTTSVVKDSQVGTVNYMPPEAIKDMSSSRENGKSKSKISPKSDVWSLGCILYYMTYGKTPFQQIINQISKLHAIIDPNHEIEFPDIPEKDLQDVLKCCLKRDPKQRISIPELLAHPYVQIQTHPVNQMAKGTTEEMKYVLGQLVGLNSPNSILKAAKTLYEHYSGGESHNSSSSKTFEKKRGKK
Description: Active TTK was purchased from Invitrogen as an amino terminal GST fusion of full length human TTK. Amino terminal 6 histidine, sumo tagged human TTK (residues 1-275) was expressed in E. coli, and purified to >95% homogeneity by Ni^2+ agarose, gel filtration, and ion exchange chromatography.
TTK activity was measured using an indirect ELISA detection system. GST-TTK (0.68 nM) was incubated in the presence of 16 μM ATP (Sigma cat# A7699), 50 mM Hepes pH 7.2, 1 mM EGTA, 10 mM MgCl2, and 0.1% Pluronic in a 96 well microtitre plate pre-coated with amino terminal 6 histidine, sumo tagged TTK (amino acid residues 1-275). The reaction was allowed to proceed for 30 minutes, followed by 5 washes of the plate with Wash Buffer (phosphate buffered saline supplemented with 0.2% Tween 20), and incubation for 30 minutes with a 1:3000 dilution of primary antibody (Cell Signaling cat# 9381). The plate was washed 5 times with Wash Buffer, incubated for 30 minutes in the presence of secondary antibody coupled to horse radish peroxidase (BioRad cat# 1721019, 1:3000 concentration), washed an additional 5 times with Wash Buffer, and incubated in the presence of TMB substrate (Sigma cat# T0440). The colourimetric reaction was allowed to continue for 5 minutes, followed by addition of stop solution (0.5 N sulphuric acid), and quantified by detection at 450 nm with either a monochromatic or filter based plate reader (Molecular Devices M5 or Beckman DTX880, respectively).
Compounds were pre-incubated in the presence of enzyme for 5 minutes prior to addition of ATP and the activity remaining quantified using the above described activity assay. The % Inhibition of a compound was determined using the following formula: % Inhibition=100×(1−(experimental value−background value)/(high activity control−background value)). The IC50 value was determined using a non-linear 4 point logistic curve fit (XLfit4, IDBS) with the formula: (A+(B/(1+((x/C)^D)))), where A=background value, B=range, C=inflection point, D=curve fit parameter.

[4] = HCT116 colon cancer cells, SRB assay

Structure (SMILES) | GI50 [1, 4] | GI50 ([2]; PA-1 ovarian cancer cells, SRB assay) | IC50 [3] | GI50 [1] | GI50 ([2]; Homo sapiens, PA-1)
O=C(Nc1ccc2[nH]nc(-c3ccc(NC4CCC(O)CC4)cc3)c2c1)C(c1ccsc1)N1CCCC1 (single isomer, unassigned) [Example A105, rel-N-(3-(4-(((1r,4r)-4-hydroxycyclohexyl)amino)phenyl)-1H-indazol-5-yl)-2-(pyrrolidin-1-yl)-2-(thiophen-3-yl)acetamide] | < 100 nM | < 100 nM | < 100 nM | – | –
O=C(NCC1(N2CCOCC2)CCCCC1)c1ccc2[nH]nc(-c3ccc(OC4CCN(C5COC5)CC4)cc3)c2c1 [Example A506, N-((1-morpholinocyclohexyl)methyl)-3-(4-((1-(oxelan-3-yl)piperidin-4-yl)oxy)phenyl)-1H-indazole-5-carboxamide] | – | – | < 100 nM | < 100 nM | < 100 nM
O=C(NC(c1ccccn1)C1CC1)c1ccc2[nH]nc(-c3ccc(N4CCOCC4)cc3)c2c1 (stereo not drawn) [Example A383, N-(cyclopropyl(pyridin-2-yl)methyl)-3-(4-morpholinophenyl)-1H-indazole-5-carboxamide] | – | – | < 100 nM | 100 to 500 nM | 100 to 500 nM
CN1C2COCC1CC(Oc1ccc(-c3n[nH]c4ccc(C(=O)N[C@H](c5ccccn5)C5CC5)cc34)cc1)C2 (stereo partly drawn) [Example A389, N-((S)-cyclopropyl(pyridin-2-yl)methyl)-3-(4-(((1R,5S,7s)-9-methyl-3-oxa-9-azabicyclo[3.3.1]nonan-7-yl)oxy)phenyl)-1H-indazole-5-carboxamide] | – | – | < 100 nM | < 100 nM | < 100 nM
C[C@H](O)C(=O)N1CCC(Oc2ccc(-c3n[nH]c4ccc(C(=O)N[C@H](c5ccccc5)C5CC5)cc34)cc2)CC1 [Example A377, N-((S)-cyclopropyl(phenyl)methyl)-3-(4-((1-((S)-2-hydroxypropanoyl)piperidin-4-yl)oxy)phenyl)-1H-indazole-5-carboxamide] | – | – | < 100 nM | 100 to 500 nM | 100 to 500 nM
O=C(Nc1ccc2[nH]nc(-c3ccc(N4CCOCC4)nc3)c2c1)C(c1ccsc1)N1CCCC1 (stereo not drawn) [Example A52, N-(3-(6-morpholinopyridin-3-yl)-1H-indazol-5-yl)-2-(pyrrolidin-1-yl)-2-(thiophen-3-yl)acetamide] | 100 to 500 nM | – | < 100 nM | – | –
CC(C)(O)C(=O)N1CCC(Oc2ccc(-c3n[nH]c4ccc(C(=O)N[C@H](c5ccccc5)C5CC5)cc34)cc2)CC1 [Example A381, (S)-N-(cyclopropyl(phenyl)methyl)-3-(4-((1-(2-hydroxy-2-methylpropanoyl)piperidin-4-yl)oxy)phenyl)-1H-indazole-5-carboxamide] | – | – | < 100 nM | 100 to 500 nM | 100 to 500 nM
CN1CCC(Oc2ccc(-c3n[nH]c4ccc(NC(=O)Nc5ccccc5F)cc34)cc2)CC1 [Example A56, 1-(2-fluorophenyl)-3-(3-(4-((1-methylpiperidin-4-yl)oxy)phenyl)-1H-indazol-5-yl)urea] | > 500 nM | – | 100 to 500 nM | – | –
O=C(NC(c1ccccc1)C1CC1)c1ccc2[nH]nc(-c3ccc(N4CCOCC4)nc3)c2c1 (stereo not drawn) [Example A54, N-(cyclopropyl(phenyl)methyl)-3-(6-morpholinopyridin-3-yl)-1H-indazole-5-carboxamide] | > 500 nM | – | < 100 nM | – | –
O=C(NC(c1ccccc1)C1CC1)c1ccc2[nH]nc(-c3ccc(N4CCOCC4)c(F)c3)c2c1 (stereo not drawn) [Example A65, N-(cyclopropyl(phenyl)methyl)-3-(3-fluoro-4-morpholinophenyl)-1H-indazole-5-carboxamide] | > 500 nM | – | 100 to 500 nM | – | –
CN1CCN(C2(CNC(=O)c3ccc4[nH]nc(-c5ccc(N6CCOCC6)cc5)c4c3)CCCCC2)CC1 [Example A448, N-((1-(4-methylpiperazin-1-yl)cyclohexyl)methyl)-3-(4-morpholinophenyl)-1H-indazole-5-carboxamide] | 100 to 500 nM | – | < 100 nM | – | –
C[C@@H]1CN(C2(CNC(=O)c3ccc4[nH]nc(-c5ccc(OC6CCN(C)CC6)cc5)c4c3)CCCCC2)C[C@H](C)O1 [Example A452, N-((1-((2S,6R)-2,6-dimethylmorpholino)cyclohexyl)methyl)-3-(4-((1-methylpiperidin-4-yl)oxy)phenyl)-1H-indazole-5-carboxamide] | > 500 nM | – | < 100 nM | – | –
O=C(NCC1(N2CCCCC2)CCCCC1)c1ccc2[nH]nc(-c3ccc(N4CCOCC4)cc3)c2c1 [Example A446, 3-(4-morpholinophenyl)-N-((1-(piperidin-1-yl)cyclohexyl)methyl)-1H-indazole-5-carboxamide] | 100 to 500 nM | – | 100 to 500 nM | – | –
CN(C)C1(CNC(=O)c2ccc3[nH]nc(-c4ccc(N5CCOCC5)cc4)c3c2)CCCCC1 [Example A450, N-((1-(dimethylamino)cyclohexyl)methyl)-3-(4-morpholinophenyl)-1H-indazole-5-carboxamide] | > 500 nM | – | > 500 nM | – | –
Cc1cc(-c2n[nH]c3ccc(NC(=O)C(c4ccsc4)N4CCCC4)cc23)ccc1N1CCOCC1 (stereo not drawn) [Example A59, N-(3-(3-methyl-4-morpholinophenyl)-1H-indazol-5-yl)-2-(pyrrolidin-1-yl)-2-(thiophen-3-yl)acetamide] | > 500 nM | – | 100 to 500 nM | – | –
O=C(Nc1ccc2[nH]nc(-c3ccc(CN4CCOCC4)cc3)c2c1)C1CCCc2ccccc21 (stereo not drawn) [Example A23, N-(3-(4-(morpholinomethyl)phenyl)-1H-indazol-5-yl)-1,2,3,4-tetrahydronaphthalene-1-carboxamide] | > 500 nM | – | 100 to 500 nM | – | –
C[C@@H]1CN(C2(CNC(=O)c3ccc4[nH]nc(-c5ccc(N6CCOCC6)cc5)c4c3)CCCCC2)C[C@H](C)O1 [Example A451, N((1-((2S,6R)-2,6-dimethylmorpholino)cyclohexyl)methyl)-3-(4-morpholinophenyl)-1H-indazole-5-carboxamide] | > 500 nM | – | 100 to 500 nM | – | –
O=C(Nc1ccc2[nH]nc(-c3ccc(N4CCOCC4)cc3)c2c1)Nc1ccccc1Cl [Example A66, 1-(2-chlorophenyl)-3-(3-(4-morpholinophenyl)-1H-indazol-5-yl)urea] | > 500 nM | – | > 500 nM | – | –
O=C(NC(c1ccccc1)C1CC1)c1ccc2[nH]nc(-c3cccc(N4CCOCC4)c3)c2c1 (stereo not drawn) [Example A61, N-(cyclopropyl(phenyl)methyl)-3-(3-morpholinophenyl)-1H-indazole-5-carboxamide] | > 500 nM | – | 100 to 500 nM | – | –
Cc1cc(-c2n[nH]c3ccc(C(=O)NC(c4ccccc4)C4CC4)cc23)ccc1N1CCOCC1 (stereo not drawn) [Example A64, N-(cyclopropyl(phenyl)methyl)-3-(3-methyl-4-morpholinophenyl)-1H-indazole-5-carboxamide] | > 500 nM | – | 100 to 500 nM | – | –
C[C@@H]1CC(CNC(=O)c2ccc3[nH]nc(-c4ccc(OC5CCN(C)CC5)cc4)c3c2)(N2CCOCC2)C[C@H](C)O1 (stereo partly drawn) [Example A475, N-(((2R,6S)-2,6-dimethyl-4-morpholinotetrahydro-2H-pyran-4-yl)methyl)-3-(4-((1-methylpiperidin-4-yl)oxy)phenyl)-1H-indazole-5-carboxamide] | – | – | 100 to 500 nM | – | –
CN1CCC(Oc2ccc(-c3n[nH]c4ccc(C(=O)NCC5(CN6CCOCC6)CC5)cc34)cc2)CC1 [Example A498, 3-(4-((1-methylpiperidin-4-yl)oxy)phenyl)-N-((1-(morpholinomethyl)cyclopropyl)methyl)-1H-indazole-5-carboxamide] | – | – | 100 to 500 nM | – | –
CC(C)C[C@H](NC(=O)c1ccc2[nH]nc(-c3ccc(N4C5CCC4CC(O)C5)cc3)c2c1)c1ccccc1F (stereo partly drawn) [Example A518, N-((S)-1-(2-fluorophenyl)-3-methylbulyl)-3-(4-((1R,3S,5S)-3-hydroxy-8-azabicyclo[3.2.1]octan-8-yl)phenyl)-1H-indazole-5-carboxamide] | – | – | < 100 nM | – | –
CN1CCC(Oc2ccc(-c3n[nH]c4ccc(C(=O)NCC5(N6CCOCC6)CCC5)cc34)cc2)CC1 [Example A479, 3-(4-((1-methylpiperidin-4-yl)oxy)phenyl)-N-((1-morpholinocyclobutyl)methyl)-1H-indazole-5-carboxamide] | – | – | 100 to 500 nM | – | –
C[C@@H]1C[C@H](Oc2ccc(-c3n[nH]c4ccc(C(=O)NCC5(N6CCOCC6)CCCC5)cc34)cc2)C[C@H](C)O1 [Example A430, (4-(((2R,4R,6S)-2,6-dimethyltetrahydro-2H-pyran-4-yl)oxy)phenyl)-N-((1-morpholinocyclopentyl)methyl)-1H-indazole-5-carboxamide] | – | – | 100 to 500 nM | – | –
